From ChEMBL document CHEMBL4396870, “Pharmacological Chaperones for the Treatment of α-Mannosidosis” (J Med Chem, 2019)
Positions count from the first letter of the chain named. Calls of active or inactive are those of the source. The rule behind the calls is not given here.

Tests used:
[1] = molecular target: T1, Lysosomal alpha-mannosidase (Homo sapiens) (UniProt O00754); assay: Chaperone activity at Lysosomal alpha-mannosidase in wild-type human fibroblasts assessed as effect on Lysosomal alpha-mannosidase activity at 0.002 to 0.02 uM using 4-methylumbelliferone alpha-D-mannopyranoside as a reporter substrate incubated for 4 days by fluorescence method relative to control
T1 sequence (whole entry): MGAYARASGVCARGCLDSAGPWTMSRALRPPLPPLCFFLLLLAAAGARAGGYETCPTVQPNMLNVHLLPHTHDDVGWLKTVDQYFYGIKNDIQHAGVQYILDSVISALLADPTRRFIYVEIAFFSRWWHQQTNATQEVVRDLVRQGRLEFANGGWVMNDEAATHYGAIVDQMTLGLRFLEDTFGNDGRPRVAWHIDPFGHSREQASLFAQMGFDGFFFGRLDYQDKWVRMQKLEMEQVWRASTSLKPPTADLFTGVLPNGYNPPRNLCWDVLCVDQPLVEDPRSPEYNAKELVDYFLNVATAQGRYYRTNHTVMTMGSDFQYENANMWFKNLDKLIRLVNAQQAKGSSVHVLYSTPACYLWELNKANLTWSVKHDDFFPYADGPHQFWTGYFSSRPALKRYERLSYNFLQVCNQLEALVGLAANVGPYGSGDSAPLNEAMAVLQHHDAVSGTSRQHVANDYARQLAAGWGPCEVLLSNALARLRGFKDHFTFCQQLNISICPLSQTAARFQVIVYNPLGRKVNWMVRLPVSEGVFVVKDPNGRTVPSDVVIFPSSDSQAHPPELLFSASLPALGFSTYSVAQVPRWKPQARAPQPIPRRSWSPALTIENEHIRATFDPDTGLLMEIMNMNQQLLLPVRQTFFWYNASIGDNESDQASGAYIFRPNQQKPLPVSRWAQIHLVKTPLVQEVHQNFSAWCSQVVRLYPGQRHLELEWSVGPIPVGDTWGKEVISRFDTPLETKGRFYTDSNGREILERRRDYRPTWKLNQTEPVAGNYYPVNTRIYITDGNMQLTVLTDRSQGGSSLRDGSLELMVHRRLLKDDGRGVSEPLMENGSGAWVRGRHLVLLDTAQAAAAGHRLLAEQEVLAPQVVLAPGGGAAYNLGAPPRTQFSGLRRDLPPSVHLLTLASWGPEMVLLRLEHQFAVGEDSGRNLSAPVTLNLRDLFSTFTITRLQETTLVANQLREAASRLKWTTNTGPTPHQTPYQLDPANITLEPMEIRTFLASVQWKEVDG

[2] = system: T2, Lysosomal alpha-mannosidase (Homo sapiens), O00754 [L352P]; assay: Chaperone activity at human Lysosomal alpha-mannosidase L352P mutant transfected in human […] knockout HAP1 cells assessed as enzyme activity enhancement at 2 uM incubated for 96 hrs relative to control
T2 sequence (whole entry): T1 sequence (whole entry) with L352P

Activity [1]	Activity [2]	Structure (SMILES)
inactive	6%	COC[C@H]1O[C@@H]2O[C@H]3[C@H](OC)[C@@H](OC)[C@@H](O[C@H]4[C@H](OC)[C@@H](OC)[C@@H](O[C@H]5[C@H](OC)[C@@H](OC)[C@@H](O[C@H]6[C@H](OC)[C@@H](OC)[C@@H](O[C@H]7[C@H](OC)[C@@H](OC)[C@@H](O[C@H]8[C@H](OC)[C@@H](OC)[C@@H](O[C@H]1[C@H](OC)[C@H]2OC)O[C@@H]8COC)O[C@@H]7COC)O[C@@H]6COC)O[C@@H]5COCc1cn(CCCCCCN[C@@H]2[C@@H](O)[C@@H](O)[C@H](O)[C@H]5COC(=O)N52)nn1)O[C@@H]4COC)O[C@@H]3COC
	8%	CC(C)(C)OC(=O)NCCCCCCCCCN[C@@H]1[C@@H](O)[C@@H](O)[C@H](O)[C@H]2COC(=O)N21
inactive		CCCc1cn(CCCCCCN[C@@H]2[C@@H](O)[C@@H](O)[C@H](O)[C@H]3COC(=O)N32)nn1
